Earlier results, collected in PMC6318274, “Lattice engineering enables definition of molecular features allowing for potent small-molecule inhibition of HIV-1 entry” (Nature Communications, 2019).
Read-outs that look alike come from different tables or passages of the source.

Test system: HIV-1 Env-pseudoviruses (208-strain panel)
Details: cited from earlier work

## COc1cnc(-n2cnc(C)n2)c2[nH]cc(C(=O)C(=O)N3CCN(C(=O)c4ccccc4)CC3)c12 [BMS-626529]
45_01dG5, clade B, read-out: IC50
  IC50: 0.4 nM
0077.v1.c16, clade C, read-out: IC50
  IC50: 2 nM
89.6.DG, clade B, read-out: IC50
  IC50: 2 nM
96ZM651.02, clade C, read-out: IC50
  IC50: 4 nM
208-strain panel, read-out: Geometric mean IC50
  IC50: 15.9 nM
208-strain panel, read-out: Median IC50
  IC50: 9 nM
235-47, clade AG, read-out: IC50
  IC50: 1 nM
242-14, clade AG, read-out: IC50
  IC50: 23 nM
246-F3.C10.2, clade AC, read-out: IC50
  IC50: 200 nM
247-23, clade D, read-out: IC50
  IC50: 11 nM
0260.v5.c36, clade A, read-out: IC50
  IC50: 29 nM
263-8, clade AG, read-out: IC50
  IC50: 2 nM
269-12, clade AG, read-out: IC50
  IC50: 15100 nM
271-11, clade AG, read-out: IC50
  IC50: > 20000 nM
286.36, clade C, read-out: IC50
  IC50: 1 nM
288.38, clade C, read-out: IC50
  IC50: 3 nM
0330.v4.c3, clade A, read-out: IC50
  IC50: 98 nM
398-F1.F6.20, clade A, read-out: IC50
  IC50: 372 nM
426c, clade C, read-out: IC50
  IC50: 30 nM
0439.v5.c1, clade A, read-out: IC50
  IC50: 9 nM
0815.v3.c3, clade ACD, read-out: IC50
  IC50: 2 nM
00836-2.5, clade C, read-out: IC50
  IC50: > 20000 nM
0921.v2.c14, clade C, read-out: IC50
  IC50: 0.9 nM
928-28, clade AG, read-out: IC50
  IC50: 2080 nM
001428-2.42, clade C, read-out: IC50
  IC50: 49 nM
3016.v5.c45, clade D, read-out: IC50
  IC50: 0.5 nM
3168.v4.c10, clade C, read-out: IC50
  IC50: 1 nM
3301.v1.c24, clade AC, read-out: IC50
  IC50: 15 nM
3326.v4.c3, clade CD, read-out: IC50
  IC50: 0.3 nM
3337.v2.c6, clade CD, read-out: IC50
  IC50: 1 nM
3365.v2.c20, clade A, read-out: IC50
  IC50: 1920 nM
3415.v1.c1, clade A, read-out: IC50
  IC50: 5 nM
3468.v1.c12, clade AD, read-out: IC50
  IC50: 7 nM
3589.v1.c4, clade AC, read-out: IC50
  IC50: 1 nM
3637.v5.c3, clade C, read-out: IC50
  IC50: 1 nM
3718.v3.c11, clade A, read-out: IC50
  IC50: 10 nM
3817.v2.c59, clade CD, read-out: IC50
  IC50: 48 nM
3873.v1.c24, clade C, read-out: IC50
  IC50: 0.6 nM
3988.25, clade B, read-out: IC50
  IC50: 1 nM
5768.04, clade B, read-out: IC50
  IC50: 3 nM
6095.v1.c10, clade ACD, read-out: IC50
  IC50: 1 nM
6101.10, clade B, read-out: IC50
  IC50: 1 nM
6322.v4.c1, clade C, read-out: IC50
  IC50: 91 nM
6405.v4.c34, clade D, read-out: IC50
  IC50: 2470 nM
6471.v1.c16, clade C, read-out: IC50
  IC50: 2 nM
6535.3, clade B, read-out: IC50
  IC50: 0.3 nM
6540.v4.c1, clade AC, read-out: IC50
  IC50: 41 nM
6545.v4.c1, clade AC, read-out: IC50
  IC50: 32 nM
6631.v3.c10, clade C, read-out: IC50
  IC50: 3 nM
6644.v2.c33, clade C, read-out: IC50
  IC50: 71 nM
6785.v5.c14, clade C, read-out: IC50
  IC50: 292 nM
6838.v1.c35, clade C, read-out: IC50
  IC50: 19 nM
7165.18, clade B, read-out: IC50
  IC50: 29 nM
0013095-2.11, clade C, read-out: IC50
  IC50: 5 nM
16055-2.3, clade C, read-out: IC50
  IC50: 3 nM
16845-2.22, clade C, read-out: IC50
  IC50: 1 nM
16936-2.21, clade C, read-out: IC50
  IC50: 6 nM
25710-2.43, clade C, read-out: IC50
  IC50: 2 nM
25711-2.4, clade C, read-out: IC50
  IC50: 13 nM
25925-2.22, clade C, read-out: IC50
  IC50: 2 nM
26191-2.48, clade C, read-out: IC50
  IC50: 2 nM
57128.vrc15, clade D, read-out: IC50
  IC50: 6 nM
191821.E6.1, clade D, read-out: IC50
  IC50: 0.8 nM
231965.c01, clade D, read-out: IC50
  IC50: 1 nM
620345.c1, clade AE, read-out: IC50
  IC50: 4130 nM
A07412M1.vrc12, clade D, read-out: IC50
  IC50: 8 nM
AC10.29, clade B, read-out: IC50
  IC50: 3 nM
ADA.DG, clade B, read-out: IC50
  IC50: 3 nM
BB201.B42, clade A, read-out: IC50
  IC50: 242 nM
BB539.2B13, clade A, read-out: IC50
  IC50: 7 nM
BG1168.01, clade B, read-out: IC50
  IC50: 13 nM
BI369.9A, clade A, read-out: IC50
  IC50: 6 nM
BJOX002000.03.2, clade BC, read-out: IC50
  IC50: 5 nM
BJOX009000.02.4, clade AE, read-out: IC50
  IC50: 5130 nM
BJOX010000.06.2, clade AE, read-out: IC50
  IC50: > 20000 nM
BJOX025000.01.1, clade AE, read-out: IC50
  IC50: > 20000 nM
BJOX028000.10.3, clade AE, read-out: IC50
  IC50: > 20000 nM
BL01.DG, clade B, read-out: IC50
  IC50: > 20000 nM
BR07.DG, clade B, read-out: IC50
  IC50: 786 nM
BR025.9, clade C, read-out: IC50
  IC50: > 20000 nM
BS208.B1, clade A, read-out: IC50
  IC50: 17 nM
BX08.16, clade B, read-out: IC50
  IC50: 2 nM
BaL.26, clade B, read-out: IC50
  IC50: 0.8 nM
Bal.01, clade B, read-out: IC50
  IC50: 1 nM
C1080.c3, clade AE, read-out: IC50
  IC50: > 20000 nM
C2101.c1, clade AE, read-out: IC50
  IC50: > 20000 nM
C3347.c11, clade AE, read-out: IC50
  IC50: 18100 nM
C4118.09, clade AE, read-out: IC50
  IC50: 4040 nM
CAAN.A2, clade B, read-out: IC50
  IC50: 1 nM
CAP45.G3, clade C, read-out: IC50
  IC50: 32 nM
CAP210.E8, clade C, read-out: IC50
  IC50: 77 nM
CAP244.D3, clade C, read-out: IC50
  IC50: 7 nM
CE703010217.B6, clade C, read-out: IC50
  IC50: 2 nM
CH038.12, clade BC, read-out: IC50
  IC50: 329 nM
CH070.1, clade BC, read-out: IC50
  IC50: 23 nM
CH117.4, clade BC, read-out: IC50
  IC50: 26 nM
CH119.10, clade BC, read-out: IC50
  IC50: 4 nM
CH181.12, clade BC, read-out: IC50
  IC50: 1 nM
CM244.ec1, clade AE, read-out: IC50
  IC50: > 20000 nM
CNE3, clade AE, read-out: IC50
  IC50: 8520 nM
CNE4, clade B, read-out: IC50
  IC50: > 20000 nM
CNE5, clade AE, read-out: IC50
  IC50: 12700 nM
CNE7, clade BC, read-out: IC50
  IC50: 13 nM
CNE8, clade AE, read-out: IC50
  IC50: > 20000 nM
CNE10, clade B, read-out: IC50
  IC50: 0.5 nM
CNE12, clade B, read-out: IC50
  IC50: 1 nM
CNE14, clade B, read-out: IC50
  IC50: 230 nM
CNE15, clade BC, read-out: IC50
  IC50: 0.9 nM
CNE19, clade BC, read-out: IC50
  IC50: 2 nM
